This is an account of results in patent publication US12466818B2, “Thienyl-aniline compounds for treatment of dermal disorders” (NFlection Therapeutics, Inc., priority 2018, dated 2025).

Data set [1] is described as follows: Assay 6: liver microsomes half-life stability assay. It is filed as in vitro ADME. The note with it: pH 7.4; human liver microsomes, 1 μM test compound, NADPH. The method, then: Metabolic stability of testing compound can be evaluated using human liver microsomes to predict intrinsic clearance. Human liver microsomes are obtained from Corning Gentest.
The assay was carried out in 96-well microtiter plates at 37° C. Reaction mixtures (25 μL) contain a final concentration of 1 μM test compound, 0.5 mg/mL liver microsomes protein, and 1 mM NADPH in buffer (100 mM potassium phosphate, pH 7.4 buffer with 3 mM MgCl2). At each of the time points (0, 15, 30, and 60 minutes), 150 μL of quench solution (100% acetonitrile with 0.1% formic acid) with internal standard was transferred to each well. Verapamil was included as a positive control to verify assay performance. Plates were sealed and centrifuged at 4° C. for 15 minutes at 4000 rpm. The supernatant was transferred to fresh plates for LC/MS/MS analysis.
All samples were analyzed on LC/MS/MS using an AB Sciex API 4000 instrument, coupled to a Shimadzu LC-20AD LC Pump system. […]
The extent of metabolism was calculated as the disappearance of the test compound, compared to the 0-min time incubation. Initial rates were calculated for the compound concentration and used to determine t1/2 values and subsequently, the intrinsic clearance, CLint=(0.693)(1/t1/2 (min))(g of liver/kg of body weight)(mL incubation/mg of microsomal protein)(45 mg of microsomal protein/g of liver weight). […]

Data set [2] has as its system pERK in human cutaneous neurofibroma explants. Nature of the data set: Human cutaneous neurofibroma explant pERK suppression (Western blot). It is filed as cell-based. The method, then: Explant Protocol: Human cutaneous neurofibroma explant samples were collected in DMEM/F-12 (Thermo Fisher, Cat #11320033) supplemented with 1×B27 supplement (Thermo Fisher, Cat #17504044), 2.5 μg/ml of Amphotericin B (Thermo Fisher, Cat #15290018), and 50 units/ml of Penicillin-50 μg/ml of Streptomycin (Thermo Fisher, Cat #15070063) and incubated in the same medium for subsequent treatment. The specimen was cut into small cubes containing both the epidermis and dermis. The tissues were partially submerged in the medium in 384-well plate with the epidermis exposed to the air.
The tissues were fully submerged in the medium in 48-well plate and 5 μl of compounds dissolved in DMSO were added to 200 μl of the medium in each well. After 4 h incubation at 37° C. and 5% CO2, the tissues were harvested and half of the specimen was flash frozen in liquid nitrogen for Western Blot analysis. The other half of the specimen was fixed for 24 hours in 10% formalin and then transferred to 70% ethanol for […].
Skin samples were thawed on ice and weighed. 10 volume (10 μl for each mg of tissue) of lysis buffer (RIPA buffer+0.5 mM EDTA+1×Halt protease and phosphatase inhibitor cocktail) was then added to each sample. […]
Western Blot analysis: The lysate was thawed on ice and protein concentration was determined by the BCA protein assay kit using bovine serum albumin (BSA) as standards. […]
(In general: Immunoblotting shows a protein as a band on a membrane.)

With `O=C1CCCc2c1sc(Nc1ccc(I)cc1F)c2C(=O)NOCCO` [Compound 1.029, 2-((2-Fluoro-4-iodophenyl)amino)-N-(2-hydroxyethoxy)-7-oxo-4,5,6,7-tetrahydrobenzo[b]thiophene-3-carboxamide], in data set [1], the half-life (usually the time needed for the level to fall by half in the phase considered) at 1 μM was ≤ 50 min. Besides, the “suppression of pERK in human cutaneous neurofibroma (cNF) explants (FIG. 5)” value in data set [2] (concentration of 500 nM) is listed as “suppression of pERK”. In addition, in data set [2] (treatment for 4 hours at 5 nM, 50 nM, and 500 nM), the “suppression of pERK in human cutaneous neurofibroma (cNF) explants (FIG. 4)” value is “suppression of pERK”.
